Reference: paper PMC12406253, “Exploration of the Neuromodulatory Properties of Fyn and GSK-3β Kinases Exploiting 7‑Azaindole-Based Inhibitors” (Journal of Medicinal Chemistry, 2025)

How the values were obtained:
IRAK4(h) = biological target: T1, IRAK4(h) (Homo sapiens, UniProt Q9NWZ3); assay: Eurofins KinaseProfiler radiometric kinase assay; format: biochemical; conditions: read-out: IRAK4(h) % Residual activity
T1 construct: purchased Eurofins KinaseProfiler (Eurofins Cerep)

PKG1α(h) = biological target: T2, PKG1α(h) (Homo sapiens, UniProt Q13976); assay: Eurofins KinaseProfiler radiometric kinase assay; format: biochemical; conditions: read-out: PKG1α(h) % Residual activity
T2 construct: purchased Eurofins KinaseProfiler (Eurofins Cerep)

GSK3β(h) = GSK3β(h) (Homo sapiens, UniProt P49841); assay: Eurofins KinaseProfiler radiometric kinase assay; conditions: read-out: GSK3β(h) % Residual activity
[1] = tested on: neurospheres (NPCs from the subventricular zone); assay: Neurosphere growth analysis (NPC proliferation); format: cell-based, mice; conditions: 0.1, 1, and 5 μM; 7 days
Procedure: Based on that, we further investigated the neurogenic and differentiation potential of our kinase inhibitors in cell culture of neurospheres, which are floating pools of NPCs coming from the subventricular zone (SVZ) of six-month-old mice. Particularly, we first analyzed the variation, during 7 days, in number and size of neurosphere population with and without treatment.
To investigate the effect of compounds of interest in neurospheres’ growth rate, single spheres were plated in suspension in 96-well plates (5 × 10^3 cells/well) in the presence of compounds (0.1 μM, 1 μM, and 5 μM) in complete DMEM F-12 culture medium. One image/well was acquired every day by using the Sartorius Incucyte Live-Cell Analysis System and evaluated through the Brightfield Spheroid Analysis Software Module. Only aggregates with areas larger than 400 μm^2 were considered for statistical analysis.

[2] = BBB permeability in hCMEC/D3 transwell model; conditions: human
Procedure: To this aim, the immortalized human brain endothelial cell line (hCMEC/D3) was used since it mimics the brain endothelium-restricted permeability and expresses most of the transporters and receptors present in vivo, constituting a valuable in vitro model of the human BBB crossing system.
BBB permeability assay was conducted as described in Albertini et al. The brain microvascular endothelial cells (hCMEC/D3) were seeded at the density of 5 × 10^4 cells per cm^2 in the upper compartment of Transwell filters (polyester, pore size 0.4 μm, 12-well tissue culture transwell; Corning), precoated with rat tail collagen type I (0.1 mg/mL; Roche). They were grown for 7 days up to confluence in Endothelial Cell Growth Medium 2 (Promocell), supplemented with penicillin/streptomycin 100 U/mL, in a humidified, 5% CO2 incubator at 37 °C. Confluent monolayers were washed in prewarmed HBSS buffer, and the selected compounds were added to the apical (AP) side at a concentration of 100 μM. […] Samples (100 μL) were collected from the BL side at different time points (15, 30, 60, and 90 min) and then replaced with the corresponding volume of HBSS buffer. […] The concentration of compounds was determined using a Ultimate 3000 HPLC system (ThermoFisher) with UV–vis detection at the maximum absorption wavelength of each compound except for inulin as determined by a spectrophotometric method using a Tecan Sunrise absorbance microplate reader. […] The permeability coefficient (Papp) was calculated as follows: Papp = (ΔQ/Δt)/(C [donor] × A), where ΔQ/Δt represents the permeation rate (mol/s), C [donor] is the initial compound concentration in the donor compartment at time 0 (mol/cm^3), and A represents the surface area of the filter (1.12 cm^2).

FYNα = FYNα (Homo sapiens, UniProt P06241); assay: Fyn kinetics, ATP competition (Lineweaver–Burk); conditions: 0.05 and 0.3 μM compound; ATP 1.5 to 24 μM
Chain of FYNα (P06241 whole entry): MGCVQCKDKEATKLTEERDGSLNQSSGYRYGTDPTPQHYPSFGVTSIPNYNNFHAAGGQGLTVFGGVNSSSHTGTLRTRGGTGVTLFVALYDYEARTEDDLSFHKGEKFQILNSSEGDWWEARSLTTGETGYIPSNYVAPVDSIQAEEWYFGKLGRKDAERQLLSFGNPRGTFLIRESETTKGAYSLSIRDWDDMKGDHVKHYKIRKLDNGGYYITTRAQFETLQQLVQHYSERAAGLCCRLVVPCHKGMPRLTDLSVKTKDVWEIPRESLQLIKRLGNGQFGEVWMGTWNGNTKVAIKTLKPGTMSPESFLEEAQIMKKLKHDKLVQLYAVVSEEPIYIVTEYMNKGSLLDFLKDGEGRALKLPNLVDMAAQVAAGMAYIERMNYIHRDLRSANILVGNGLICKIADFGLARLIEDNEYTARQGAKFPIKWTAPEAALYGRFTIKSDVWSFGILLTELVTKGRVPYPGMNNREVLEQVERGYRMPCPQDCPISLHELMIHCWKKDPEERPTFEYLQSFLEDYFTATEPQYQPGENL

T2 sequence (Q13976 whole entry): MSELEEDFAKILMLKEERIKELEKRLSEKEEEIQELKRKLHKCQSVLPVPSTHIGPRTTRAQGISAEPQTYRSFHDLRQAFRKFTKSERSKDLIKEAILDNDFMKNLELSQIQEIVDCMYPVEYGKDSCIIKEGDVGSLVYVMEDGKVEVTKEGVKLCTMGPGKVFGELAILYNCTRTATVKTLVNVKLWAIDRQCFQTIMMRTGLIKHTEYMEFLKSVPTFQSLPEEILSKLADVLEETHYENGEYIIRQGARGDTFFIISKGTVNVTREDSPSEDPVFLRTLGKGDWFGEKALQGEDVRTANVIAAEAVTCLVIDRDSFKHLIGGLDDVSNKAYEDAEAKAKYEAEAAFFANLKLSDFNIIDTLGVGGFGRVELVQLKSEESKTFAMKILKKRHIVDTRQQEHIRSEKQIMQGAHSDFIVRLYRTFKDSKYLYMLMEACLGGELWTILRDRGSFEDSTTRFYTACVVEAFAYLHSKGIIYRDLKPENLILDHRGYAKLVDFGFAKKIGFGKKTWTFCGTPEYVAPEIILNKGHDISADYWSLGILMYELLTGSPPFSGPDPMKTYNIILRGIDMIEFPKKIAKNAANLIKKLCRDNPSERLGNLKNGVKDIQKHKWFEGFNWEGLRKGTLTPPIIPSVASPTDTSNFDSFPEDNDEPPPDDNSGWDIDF
T1 sequence (Q9NWZ3 whole entry): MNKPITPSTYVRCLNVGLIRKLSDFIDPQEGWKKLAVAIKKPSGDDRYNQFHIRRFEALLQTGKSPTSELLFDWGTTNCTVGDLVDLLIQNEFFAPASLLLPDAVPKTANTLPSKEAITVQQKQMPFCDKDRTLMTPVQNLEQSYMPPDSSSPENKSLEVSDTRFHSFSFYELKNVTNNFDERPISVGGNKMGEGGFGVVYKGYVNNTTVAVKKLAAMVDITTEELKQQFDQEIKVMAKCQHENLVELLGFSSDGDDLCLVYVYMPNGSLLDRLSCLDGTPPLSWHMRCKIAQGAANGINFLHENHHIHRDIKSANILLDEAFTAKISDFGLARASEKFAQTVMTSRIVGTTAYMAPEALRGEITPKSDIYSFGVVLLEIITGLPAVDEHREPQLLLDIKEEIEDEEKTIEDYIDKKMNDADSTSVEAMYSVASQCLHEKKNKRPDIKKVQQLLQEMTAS
Chain of GSK3β(h) (P49841 whole entry): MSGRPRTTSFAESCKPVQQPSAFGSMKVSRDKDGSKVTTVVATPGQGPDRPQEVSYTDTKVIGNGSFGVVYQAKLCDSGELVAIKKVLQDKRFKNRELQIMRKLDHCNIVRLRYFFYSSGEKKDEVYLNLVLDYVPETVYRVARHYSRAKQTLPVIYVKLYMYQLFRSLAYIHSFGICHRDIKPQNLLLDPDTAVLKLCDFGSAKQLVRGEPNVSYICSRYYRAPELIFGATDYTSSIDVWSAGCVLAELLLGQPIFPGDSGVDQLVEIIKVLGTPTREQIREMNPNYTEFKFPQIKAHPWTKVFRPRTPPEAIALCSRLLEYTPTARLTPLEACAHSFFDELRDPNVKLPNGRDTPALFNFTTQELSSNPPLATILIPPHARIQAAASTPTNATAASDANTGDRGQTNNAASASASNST

remaining activity at 10 µM (IRAK4(h)) [%]	remaining activity at 10 µM (PKG1α(h)) [%]	remaining activity at 10 µM (GSK3β(h)) [%]	Papp A→B at 90 min, 100 μM [2] [nm/s]	SMILES	Neurosphere number (object count per image), neurogenesis [1]	Mechanism of Fyn inhibition with respect to ATP (FYNα)
52	80	58	–	Br.Cc1sc(NCc2ccccc2)nc1-c1c[nH]c2ncc(Br)cc12 [Compound 41, N-Benzyl-4-(5-bromo-1H-pyrrolo[2,3-b]pyridin-3-yl)-5-methylthiazol-2-amine Hydrobromide]	–	–
31	40	–	320 ± 53.8	Br.Cc1sc(NCc2ccnc(Cl)c2)nc1-c1c[nH]c2ncccc12 [Compound 43, N-((2-Chloropyridin-4-yl)methyl)-5-methyl-4-(1H-pyrrolo[2,3-b]pyridin-3-yl)thiazol-2-amine Hydrobromide]	not effective	competitive inhibition with respect to ATP
